From patent publication US8063101B2, “Carotenoid analogs and derivatives for the prevention of platelet aggregation” (Cardax Pharmaceuticals, Inc., priority 2007, dated 2011)
Where two headings read alike, the source gives them in different places.

What was measured:
[1] = rat, in vivo
Procedure: In a another experiment, all-trans 3S,3′S-astaxanthin diester diglycinate dihydrochloride salt (hereinafter “ADG”); all-trans 3S,3′S-astaxanthin diester disarcosinate dihydrochloride salt (hereinafter “ADSa”); and ADL were administered orally to separate rats as a aqueous suspension containing 0.5% carboxymethylcellulose. A single dose that included 40 mg/kg of the carotenoid derivative was administered to each rat. (See FIG. 20, PK Study #CXPK07202). For each carotenoid derivative given to the rats in this example, the amount of all astaxanthin isomers, the amount of trans astaxanthin isomers, and the amount of cis astaxanthin isomers in the plasma was determined at predefined time intervals for 3 days (72 hours).
In another experiment, ADG; ADSa; and ADL were administered to separate rats intravenously as an aqueous solution. A single dose that included 5 mg/kg of the carotenoid derivative was administered to each rat. (See FIG. 20, PK Study #CXPK07202). For each carotenoid derivative given to the rats in this example, the amount of all astaxanthin isomers, the amount of trans astaxanthin isomers, and the amount of cis astaxanthin isomers in the plasma was determined at predefined time intervals for 3 days (72 hours).

[2] = Dog PK of astaxanthin derivatives (CXPK07402, 07404, 07405, 07406); settings: dog, in vivo, po, 20 mg/kg
Procedure: In another experiment, ADL was administered to non-naïve beagle dogs orally (as an aqueous suspension containing 0.5% carboxymethylcellulose) and intravenously as an aqueous solution. Oral doses that included 10 mg/kg of the carotenoid derivative, 100 mg/kg of the carotenoid derivative, and 500 mg/kg of the carotenoid derivative were administered to each dog. The intravenous dosage was 5 mg/kg. (See FIG. 20, PK Study #CXPK07402). For each carotenoid derivative given to the dogs in this example, the amount of all astaxanthin isomers, the amount of trans astaxanthin isomers, and the amount of cis astaxanthin isomers in the plasma was determined at predefined time intervals for 3 days (72 hours).
In another experiment, ADL was administered to naïve beagle dogs orally (as an aqueous suspension containing 0.5% carboxymethylcellulose) twice a day for six days. Each oral dose included 75 mg/kg of the carotenoid derivative. (See FIG. 20, PK Study #CXPK07404). For each carotenoid derivative given to the dogs in this example, the amount of all astaxanthin isomers, the amount of trans astaxanthin isomers, and the amount of cis astaxanthin isomers in the plasma was determined at predefined time intervals for 6 days.
In another experiment, all-trans 3S,3′ S-astaxanthin diester di-beta-alanine dihydrochloride salt (hereinafter “ADA”); ADG; ADL; ADSa; and ADS were administered orally to separate non-naïve dogs as a aqueous suspension containing 0.5% carboxymethylcellulose. A single dose that included 20 mg/kg of the carotenoid derivative was administered to each dog. (See FIG. 20, PK Study #CXPK07405). For each carotenoid derivative given to the dogs in this example, the amount of all astaxanthin isomers was determined at predefined time intervals for 3 days (72 hours).
In another experiment, ADG or ADSa was administered to non-naïve beagle dogs orally (as an aqueous suspension containing 0.5% carboxymethylcellulose). Oral doses included either 50 mg/kg of the carotenoid derivative or 100 mg/kg of the carotenoid derivative. (See FIG. 20, PK Study #CXPK07406). For each carotenoid derivative given to the dogs in this example, the amount of all astaxanthin isomers, the amount of trans astaxanthin isomers, and the amount of cis astaxanthin isomers in the plasma was determined at predefined time intervals for 3 days (72 hours).

[3] = Monkey PK oral and intravenous (CXPK07502); type: in vivo; settings: monkeys; oral 10, 300, 500 mg/kg and intravenous 5 mg/kg
vascular platelets = test: Platelet-derived nitric oxide (NO) release after IP3 stimulation, NO nanosensor; type: cell-based, Wistar-Kyoto (WKY) rats
Procedure: Wistar-Kyoto (WKY) rats were anaesthetized and blood was collected directly from the heart using a 10 mL syringe that contained 3.8% sodium citrate (9:1, v v^−1). […] The platelet rich plasma (PRP) was then removed by aspiration. […] The number of platelets was counted and adjusted to 3.5×10^8 per mL with Tyrode-HEPES buffer. The platelets were incubated in an aggregometer with a NO nanosensor (working electrode) placed in the platelet suspension. […] All measurements of NO release were conducted in Hank's balanced salt solution (HBSS) at 37° C. The sensor operated with a three-electrode system: nanosensor (working electrode), saturated calomel electrode (reference electrode), and platinum wire (counter electrode, 0.5 mm diameter). The three electrodes were connected to a potentiostat/galvanostat PAR273. The baseline was stabilized after ˜20 s. With a nanoinjector, the test compounds were injected onto the surface of the cells following solubilization in buffer. In experiments with multiple compounds, the compounds were injected simultaneously. […] Data were acquired with the use of custom software. Amperograms (current vs. time curves) were recorded with a Guniry FAS1 Femtostat (Warminster, Pa.). The nanosensor for NO was calibrated using saturated solution (concentration 1.82 mM verified with the coulometric method). […] The data were presented as mean±S.D. for each of the triplicate measurements. The data (calculation and plotting) were transferred to Microcal Origin Software (OriginLab Corp., Northampton, Mass.). […] The NO concentration was calculated using current responses obtained from standard NO solution (prepared from […] stock solution, saturated aqueous NO solution).

platelets [4] = test: Platelet-derived peroxynitrite release after IP3 stimulation; type: cell-based; settings: IP3 1.0 μM
From the text: Values are reported as mean±S.D. (N=5). *p<0.001 and †p<0.05 versus control; §p<0.001 versus aspirin treatment (ANOVA Student-Newman-Keuls multiple comparisons test; overall ANOVA: p<0.0001; F=52.475). […] Values are reported as mean±S.D. (N=5). *p<0.001 versus control and †p<0.001 versus aspirin alone (ANOVA Student-Newman-Keuls multiple comparisons test; overall ANOVA: p<0.0001; F=21.905). Abbreviations: Astax=Astaxanthin. […] Values are reported as mean±S.D. (N=5). *p<0.05 and **p<0.001 versus control; †p<0.05 and ‡p<0.001 versus simvastatin alone (ANOVA Student-Newman-Keuls multiple comparisons test; overall ANOVA: p<0.0001; F=13.716). Abbreviations: Astax=Astaxanthin; Simva=Simvastatin.

platelets [5] = test: Platelet nitric oxide/peroxynitrite release ratio after IP3 stimulation; type: cell-based; settings: astaxanthin combined with aspirin 1.0 μM; IP3 1.0 μM
From the text: Values are reported as mean±S.D. (N=5). *p<0.05 and **p<0.001 versus control; †p<0.01 and ‡p<0.001 versus aspirin alone (ANOVA Student-Newman-Keuls multiple comparisons test; overall ANOVA: p<0.0001; F=129.98). Abbreviations: Astax=Astaxanthin. […] Values are reported as mean±S.D. (N=5). *p<0.05 and **p<0.001 versus control; †p<0.001 versus simvastatin alone (ANOVA Student-Newman-Keuls multiple comparisons test; overall ANOVA: p<0.0001; F=84.477). Abbreviations: Astax=Astaxanthin; Simva=Simvastatin. […] Values are reported as mean±S.D. (N=5). *p<0.05 and †p<0.001 versus control; §p<0.001 versus astaxanthin treatment (ANOVA Student-Newman-Keuls multiple comparisons test; overall ANOVA: p<0.0001; F=40.020).

[6] = test system: human umbilical vein endothelial cells (HUVEC); test: Calcium ionophore (CaI)-stimulated total nitric oxide release from HUVEC; type: cell-based; settings: 3S,3′S-AST 5.0 μM, clopidogrel 1.0 μM, alone or in combination; FIG. 5
Procedure: (§1) Human umbilical vein endothelial cells (HUVECs) were isolated into primary cultures from white female donors by Clonetics (San Diego, Calif.), essentially as described (Mason et al. 2005). All donors were reported to be healthy and none had pregnancy or prenatal complications. All measurements were recorded in vitro using a sensitive porphyrinic probe, also as previously described. HUVEC cells were grown in Ham's F12K medium with 2 mM L-glutamine adjusted to contain 1.5 g/L sodium bicarbonate and supplemented with 0.1 mg/mL heparin and 0.03-0.05 mg/mL endothelial cell growth supplement (ECGS) plus 10% fetal bovine serum. The HUVEC cells were kept in an atmosphere of elevated CO2 concentration (5%).
All measurements of NO release were conducted in Hank's balanced salt solution (HBSS) at 37° C. The sensor operated with a three-electrode system: nanosensor (working electrode), saturated calomel electrode (reference electrode), and platinum wire (counter electrode, 0.5 mm diameter). The three electrodes were connected to a potentiostat/galvanostat PAR273. […] The current (amps) proportional to the NO concentration was measured with the sensor, which operated in amperometric mode at a constant potential of 0.63 V. Data were acquired with the use of custom software. Amperograms (current vs. time curves) were recorded with a Guniry FAS1 Femtostat (Warminster, Pa.).

[7] = test system: human umbilical vein endothelial cells (HUVEC); test: Calcium ionophore (CaI)-stimulated total peroxynitrite release from HUVEC; type: cell-based; settings: 3S,3′S-AST 5.0 μM, clopidogrel 1.0 μM, alone or in combination; FIG. 6
Procedure: as §1

[8] = test system: human umbilical vein endothelial cells (HUVEC); test: CaI-stimulated NO/OONO- release ratio from HUVEC; type: cell-based; settings: 3S,3′S-AST 5.0 μM, clopidogrel 1.0 μM, alone or in combination; FIG. 7
Procedure: as §1

[9] = set-up: species or system rats; settings: in vivo, po, 500 mg/kg
Procedure: In one experiment, astaxanthin; all-trans 3S,3'S-astaxanthin diester disuccinate disodium salt (hereinafter “ADS”); and all-trans 3S,3'S-astaxanthin diester […] tetrahydrochloride salt (hereinafter “ADL”) were administered orally to separate rats as a lipid suspension. A single dose that included 500 mg/kg of the carotenoid/carotenoid derivative was administered to each rat. (See FIG. 20, PK Study #CXPK07201). Plasma from each of the rats was collected 4 hours after ingestion and 8 hours after ingestion and all samples were analyzed by high performance liquid chromatography (“HPLC”). HPLC analysis was used to detect the presence of free underivatized carotenoid (e.g., in this example, astaxanthin) in the plasma. HPLC chromatograms were collected for each plasma sample taken.

[10] = astaxanthin combined with aspirin 1.0 μM, IP3 1.0 μM, FIG. 14

absorption and metabolism to astaxanthin in plasma ([1]; iv, 5 mg/kg) | absorption and metabolism to astaxanthin in plasma ([1]; po, 40 mg/kg) | absorption and metabolism to astaxanthin in plasma [2] | absorption and metabolism to astaxanthin in plasma [3] | free astaxanthin in rat plasma [9] | Structure (SMILES) | sustained production of NO with time (amperogram) (vascular platelets; IP3-stimulated, 3S,3′S-AST 5.0 μM alone or with clopidogrel 1.0 μM, FIG. 4) | mean increase in capacity to generate bioavailable NO vs. controls (vascular platelets; IP3 stimulation, homochiral astaxanthin 5.0 μM alone) | increase in platelet NO generation/release vs. mean control levels (vascular platelets; IP3 stimulation, homochiral astaxanthin 5 μM, clopidogrel 1 μM, each as monotherapy) | total NO release from vascular platelets (vascular platelets; IP3 stimulation, homochiral astaxanthin 5.0 μM, clopidogrel 1.0 μM, controls 6.6±0.3, mean±S.D.) | increase in NO release over untreated samples (vascular platelets; [10]) | potentiation of the NO release observed by aspirin alone (vascular platelets; [10]) | effect of astaxanthin on simvastatin's platelet-derived NO release (vascular platelets; increasing astaxanthin with simvastatin 1.0 μM, IP3 1.0 μM) | effect on platelet ONOO— release (platelets [4]; compound alone at 1.0 μM, FIG. 12) | effect of astaxanthin on aspirin-induced ONOO— release (platelets [4]; increasing astaxanthin with aspirin 1.0 μM, FIG. 13) | NOS coupling efficiency (ratio of NO/ONOO—), increase over control levels as well as aspirin alone (platelets [5]) | effect on CaI-stimulated total nitric oxide release from HUVEC [6] | effect on CaI-stimulated total peroxynitrite (OONO−) release from HUVEC [7] | effect on CaI-stimulated NO/OONO− release ratio from HUVEC [8]
absorbed by the rats and metabolized | absorbed by the rats and metabolized | absorbed by the dogs and metabolized | absorbed by the monkeys and metabolized |  | CNCC(=O)O[C@H]1CC(C)(C)C(/C=C/C(C)=C/C=C/C(C)=C/C=C/C=C(C)/C=C/C=C(C)/C=C/C2=C(C)C(=O)[C@@H](OC(=O)CNC)CC2(C)C)=C(C)C1=O.Cl.Cl (relative stereo) [ADSa, all-trans 3S,3′S-astaxanthin diester disarcosinate dihydrochloride salt] |  |  |  |  |  |  |  |  |  |  |  |  | 
 |  |  |  | no significant amount | CC1=C(/C=C/C(C)=C/C=C/C(C)=C/C=C/C=C(C)/C=C/C=C(C)/C=C/C2=C(C)C(=O)[C@@H](O)CC2(C)C)C(C)(C)C[C@H](O)C1=O [homochiral astaxanthin, astaxanthin] | 13 s | two-fold | ~100% | 12.9±0.3 molecules NO×10^6/platelet | 3 fold | 80% | enhanced the effect of simvastatin on platelet-derived NO release in a dose-dependent fashion | decreased | reverse the effect of aspirin on ONOO— release in a dose-dependent manner | approximately three-fold | Statistically significant increases | Statistically significant decreases | Statistically significant increases
